pKi: −log10 of the molar value.
Tests used:
[1] = molecular target: T1, rat mGluR1 (Rattus norvegicus, UniProt P23385); test: MGluR1 receptor binding test ([3H]R214127 displacement, rat cerebellar membrane preparation); conditions: rat mGluR1, [3H]R214127 3 nM; read-out: mGlu1 Ki
T1 construct: rat cerebellar membrane preparation was used; from tissue; host or cells: rat cerebellum (membrane preparation)
Method: MGluR1 receptor binding tests were performed according to modified method of Lavreysen et al. (Mol. Pharm., 2003, 63, 1082). Based on the high homology between the human and rat mGluR1 receptors, rat cerebellar membrane preparation was used to determine the binding characteristics of reference compounds and novel compounds to the rat mGluR1. [3H]R214127 (3 nM) was used as radioligand and the nonspecific binding was determined in the presence of 1 μM of R214127.
IC-50 values were determined from displacement curves by nonlinear regression analysis and were converted to Ki values using the equation method of Cheng and Prusoff (Biochem. Pharmacol., 1973, 22, 3099).

[2] = molecular target: T2, rat mGluR5 (Rattus norvegicus, UniProt P31424); test: MGluR5 receptor binding test ([3H]-M-MPEP displacement, rat cerebro-cortical membrane preparation); conditions: rat mGluR5, [3H]-M-MPEP 2 nM; read-out: mGlu5 Ki
T2 construct: Rat cerebro-cortical membrane preparation was used; from tissue; host or cells: rat cerebral cortex (membrane preparation)
T2 sequence (P31424 21-1203): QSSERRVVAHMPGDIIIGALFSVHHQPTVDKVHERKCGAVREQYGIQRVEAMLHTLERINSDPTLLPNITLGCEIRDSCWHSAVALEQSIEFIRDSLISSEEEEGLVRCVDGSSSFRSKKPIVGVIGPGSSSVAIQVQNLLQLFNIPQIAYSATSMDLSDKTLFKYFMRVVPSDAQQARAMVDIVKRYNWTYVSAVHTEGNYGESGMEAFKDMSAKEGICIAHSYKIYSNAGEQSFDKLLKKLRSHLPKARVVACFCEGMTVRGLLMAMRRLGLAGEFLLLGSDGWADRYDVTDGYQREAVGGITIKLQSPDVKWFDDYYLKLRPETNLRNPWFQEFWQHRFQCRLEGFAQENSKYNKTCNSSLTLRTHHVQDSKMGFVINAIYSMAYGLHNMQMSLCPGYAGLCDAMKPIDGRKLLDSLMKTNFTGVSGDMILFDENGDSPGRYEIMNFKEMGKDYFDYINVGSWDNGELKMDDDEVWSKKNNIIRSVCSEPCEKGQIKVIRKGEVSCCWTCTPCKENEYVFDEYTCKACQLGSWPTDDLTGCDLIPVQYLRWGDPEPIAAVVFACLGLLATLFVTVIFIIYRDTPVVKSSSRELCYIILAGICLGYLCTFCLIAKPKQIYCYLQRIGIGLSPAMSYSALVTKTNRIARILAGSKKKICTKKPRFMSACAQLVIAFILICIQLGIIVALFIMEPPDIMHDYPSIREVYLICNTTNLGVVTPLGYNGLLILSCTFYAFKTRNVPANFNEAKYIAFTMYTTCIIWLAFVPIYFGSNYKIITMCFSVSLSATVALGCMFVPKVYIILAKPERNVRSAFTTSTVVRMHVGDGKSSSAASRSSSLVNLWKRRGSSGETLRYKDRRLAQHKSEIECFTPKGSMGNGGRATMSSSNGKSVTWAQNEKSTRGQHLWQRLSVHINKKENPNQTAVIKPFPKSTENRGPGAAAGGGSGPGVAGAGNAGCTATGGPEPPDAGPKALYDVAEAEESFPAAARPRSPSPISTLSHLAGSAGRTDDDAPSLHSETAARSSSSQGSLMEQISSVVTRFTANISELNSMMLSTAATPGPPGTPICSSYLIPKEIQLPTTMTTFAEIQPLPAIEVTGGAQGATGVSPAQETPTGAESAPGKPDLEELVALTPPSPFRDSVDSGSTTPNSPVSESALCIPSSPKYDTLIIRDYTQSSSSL
Method: Rat cerebro-cortical membrane preparation was used to determine the binding characteristics of reference compounds and novel compounds to the rat mGluR5. The A18 cell line expressing hmGluR5a (purchased from Euroscreen) was used to determine binding characteristics of the chemical compounds to the human mGluR5a receptor. [3H]-M-MPEP (2 nM) was used as radioligand. The nonspecific binding was determined in the presence of 10 μM M-MPEP.

T1 sequence (P23385 19-1199): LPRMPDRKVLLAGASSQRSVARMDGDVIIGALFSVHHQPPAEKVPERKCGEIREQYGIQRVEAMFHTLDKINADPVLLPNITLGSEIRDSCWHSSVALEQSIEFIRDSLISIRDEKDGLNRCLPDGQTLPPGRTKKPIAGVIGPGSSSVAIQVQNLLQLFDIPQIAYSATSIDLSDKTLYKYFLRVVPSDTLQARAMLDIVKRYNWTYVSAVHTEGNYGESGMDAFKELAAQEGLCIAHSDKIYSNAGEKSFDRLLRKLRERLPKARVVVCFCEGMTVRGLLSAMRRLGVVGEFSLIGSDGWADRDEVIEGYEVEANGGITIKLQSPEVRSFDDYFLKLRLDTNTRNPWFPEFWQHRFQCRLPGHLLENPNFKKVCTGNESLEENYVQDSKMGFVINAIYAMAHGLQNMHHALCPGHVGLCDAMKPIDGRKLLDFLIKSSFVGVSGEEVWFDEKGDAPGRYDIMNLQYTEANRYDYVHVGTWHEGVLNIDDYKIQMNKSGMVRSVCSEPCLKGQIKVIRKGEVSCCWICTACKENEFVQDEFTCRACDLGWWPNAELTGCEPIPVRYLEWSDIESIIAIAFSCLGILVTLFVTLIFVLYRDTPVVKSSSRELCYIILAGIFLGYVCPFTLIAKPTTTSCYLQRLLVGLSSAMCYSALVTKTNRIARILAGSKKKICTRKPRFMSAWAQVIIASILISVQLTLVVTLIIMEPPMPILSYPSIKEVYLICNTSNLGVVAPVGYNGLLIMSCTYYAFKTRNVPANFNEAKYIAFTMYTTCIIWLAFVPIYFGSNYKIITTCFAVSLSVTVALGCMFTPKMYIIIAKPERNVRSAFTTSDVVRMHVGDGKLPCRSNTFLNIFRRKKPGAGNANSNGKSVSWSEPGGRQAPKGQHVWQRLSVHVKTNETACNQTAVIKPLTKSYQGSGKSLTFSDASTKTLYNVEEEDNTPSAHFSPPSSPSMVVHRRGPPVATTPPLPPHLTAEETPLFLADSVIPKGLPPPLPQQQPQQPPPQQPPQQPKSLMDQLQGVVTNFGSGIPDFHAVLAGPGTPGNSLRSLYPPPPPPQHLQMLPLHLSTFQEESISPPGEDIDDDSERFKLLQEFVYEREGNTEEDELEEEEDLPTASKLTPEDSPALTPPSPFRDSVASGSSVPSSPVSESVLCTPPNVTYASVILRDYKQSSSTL

SMILES	pKi [1]	pKi [2]
O=S(=O)(c1ccc(F)c(F)c1)c1cnc2ccc(F)cc2c1-c1cccc(Cl)c1 [Compound 149]	6.30 to 6.70	6.30 to 6.70
O=S(=O)(c1ccc(Cl)c(Cl)c1)c1cnc2cc(Cl)ccc2c1-c1ccc(F)c(F)c1 [Compound 248]	6.30 to 6.70	> 6.70
COc1ccc(-c2c(S(=O)(=O)c3ccc(OC)cc3)cnc3cc(F)ccc23)cc1 [Compound 13]	< 6.30	> 6.70
O=S(=O)(c1cccc(F)c1)c1cnc2cc(F)ccc2c1-c1cccc(F)c1 [Compound 15]	6.30 to 6.70	> 6.70
N#Cc1cc(F)cc(S(=O)(=O)c2cnc3cc(F)ccc3c2-c2ccc(F)cc2)c1 [Compound 218]	< 6.30	> 6.70
Cc1ccc(S(=O)(=O)c2cnc3cc(F)ccc3c2-c2cccc(F)c2)cc1Cl [Compound 94]	< 6.30	> 6.70
N#Cc1cc(C#N)cc(S(=O)(=O)c2cnc3cc(F)ccc3c2-c2ccc(F)cc2)c1 [Compound 249]	< 6.30	> 6.70
O=S(=O)(c1ccc(F)cc1)c1cnc2cc(F)ccc2c1-c1ccc(F)cc1 [Compound 40]	< 6.30	> 6.70
Cc1ccc(S(=O)(=O)c2cnc3ccc(F)cc3c2-c2cccc(Cl)c2)cc1Cl [Compound 138]	< 6.30	> 6.70
COc1ccc(-c2c(S(=O)(=O)c3cccc(OC)c3)cnc3ccc(F)cc23)cc1 [Compound 145]	< 6.30	> 6.70
COc1ccc(S(=O)(=O)c2cnc3ccc(F)cc3c2-c2ccc(F)cc2)cc1 [Compound 143]	< 6.30	6.30 to 6.70
COc1cccc(S(=O)(=O)c2cnc3cc(F)ccc3c2-c2cccc(F)c2)c1 [Compound 95]	< 6.30	6.30 to 6.70
O=S(=O)(c1cc(F)cc(F)c1)c1cnc2cc(F)c(Cl)cc2c1-c1ccc(Cl)cc1 [Compound 198]	< 6.30	< 6.30
O=S(=O)(c1cc(Cl)cc(Cl)c1)c1cnc2cc(F)ccc2c1-c1cccc(Cl)c1 [Compound 156]	6.30 to 6.70	> 6.70
O=S(=O)(c1cc(F)cc(F)c1)c1cnc2ccc(F)cc2c1-c1ccc(F)cc1 [Compound 66]	< 6.30	6.30 to 6.70
O=S(=O)(c1cc(Cl)cc(Cl)c1)c1cnc2c(F)c(Cl)ccc2c1-c1cccc(Cl)c1 [Compound 252]	6.30 to 6.70	> 6.70
Cc1ccc(S(=O)(=O)c2cnc3ccc(F)cc3c2-c2ccc(F)cc2)cc1Cl [Compound 142]	< 6.30	> 6.70
COc1cccc(-c2c(S(=O)(=O)c3ccc(F)c(F)c3)cnc3ccc(F)cc23)c1 [Compound 151]	< 6.30	6.30 to 6.70
O=S(=O)(c1ccc(F)c(Cl)c1)c1cnc2cc(F)ccc2c1-c1cccc(F)c1 [Compound 103]	> 6.70	> 6.70
O=S(=O)(c1ccc(F)c(Cl)c1)c1cnc2cc(F)ccc2c1-c1cccc(Cl)c1 [Compound 258]	6.30 to 6.70	> 6.70
O=S(=O)(c1ccc(Cl)c(F)c1)c1cnc2cc(F)c(Cl)cc2c1-c1cccc(F)c1 [Compound 188]	< 6.30	6.30 to 6.70
COc1cccc(-c2c(S(=O)(=O)c3ccc(C)c(C)c3)cnc3cc(F)ccc23)c1 [Compound 19]	< 6.30	> 6.70
N#Cc1cc(F)cc(S(=O)(=O)c2cnc3cc(F)ccc3c2-c2ccc(F)c(F)c2)c1 [Compound 231]	< 6.30	> 6.70
O=S(=O)(c1ccc(F)c(Cl)c1)c1cnc2cc(Cl)ccc2c1-c1cccc(F)c1 [Compound 171]	< 6.30	> 6.70
COc1ccc(S(=O)(=O)c2cnc3cc(F)ccc3c2-c2cccc(F)c2)cc1Cl [Compound 48]	< 6.30	> 6.70

Other lines, results leading:

pKi [1]	pKi [2]	SMILES
< 6.30	> 6.70	O=S(=O)(c1cccc(F)c1)c1cnc2cc(F)ccc2c1-c1ccc(Cl)cc1 [Compound 41]
< 6.30	> 6.70	N#Cc1cccc(S(=O)(=O)c2cnc3c(F)cccc3c2-c2ccc(Cl)cc2)c1 [Compound 225]
< 6.30	> 6.70	O=S(=O)(c1ccc(F)c(F)c1)c1cnc2cc(Cl)ccc2c1-c1ccc(Cl)cc1 [Compound 175]
6.30 to 6.70	> 6.70	O=S(=O)(c1ccc(F)c(F)c1)c1cnc2c(F)cccc2c1-c1ccc(Cl)cc1 [Compound 120]
< 6.30	> 6.70	O=S(=O)(c1ccc(F)cc1)c1cnc2cc(Cl)ccc2c1-c1cccc(F)c1 [Compound 167]
< 6.30	6.30 to 6.70	O=S(=O)(c1ccc(F)cc1)c1cnc2ccc(F)cc2c1-c1ccc(Cl)cc1 [Compound 25]
< 6.30	> 6.70	COc1cccc(S(=O)(=O)c2cnc3cc(F)ccc3c2-c2ccc(F)cc2)c1 [Compound 44]
< 6.30	> 6.70	N#Cc1cc(F)cc(S(=O)(=O)c2cnc3ccccc3c2-c2ccc(Cl)cc2)c1 [Compound 272]
6.30 to 6.70	> 6.70	N#Cc1cc(S(=O)(=O)c2cnc3cc(Cl)ccc3c2-c2ccc(Cl)cc2)ccc1F [Compound 277]
< 6.30	> 6.70	COc1cccc(-c2c(S(=O)(=O)c3cccc(C#N)c3)cnc3cc(F)ccc23)c1 [Compound 93]
6.30 to 6.70	> 6.70	N#Cc1cccc(S(=O)(=O)c2cnc3ccc(F)cc3c2-c2cccc(F)c2)c1 [Compound 67]
< 6.30	> 6.70	N#Cc1cc(F)cc(S(=O)(=O)c2cnc3cc(F)ccc3c2-c2cccc(Cl)c2)c1 [Compound 244]
< 6.30	> 6.70	COc1ccc(S(=O)(=O)c2cnc3c(F)cccc3c2-c2cccc(Cl)c2)cc1 [Compound 53, 4-(3-chloro-phenyl)-8-fluoro-3-(4-methoxy-benzenesulfonyl)-quinoline]
6.30 to 6.70	> 6.70	O=S(=O)(c1ccc(F)c(F)c1)c1cnc2ccc(F)cc2c1-c1ccc(F)cc1 [Compound 152]
< 6.30	> 6.70	O=S(=O)(c1ccc(F)c(F)c1)c1cnc2c(F)cccc2c1-c1cccc(Cl)c1 [Compound 259]
< 6.30	> 6.70	COc1cccc(-c2c(S(=O)(=O)c3ccc(C)c(F)c3)cnc3c(F)cccc23)c1 [Compound 113]
< 6.30	> 6.70	COc1cccc(-c2c(S(=O)(=O)c3cccc(F)c3)cnc3c(F)cccc23)c1 [Compound 62]
< 6.30	> 6.70	N#Cc1cc(F)cc(S(=O)(=O)c2cnc3cc(Cl)ccc3c2-c2ccc(F)cc2)c1 [Compound 186, 7-chloro-3-(3-cyano-5-fluoro-benzenesulfonyl)-4-(4-fluoro-phenyl)-quinoline]

pKi [1]	pKi [2]	SMILES
6.30 to 6.70	> 6.70	N#Cc1cccc(S(=O)(=O)c2cnc3cc(F)ccc3c2-c2cccc(F)c2)c1 [Compound 38]
< 6.30	> 6.70	O=S(=O)(c1ccc(F)c(Cl)c1)c1cnc2cc(Cl)ccc2c1-c1ccc(Cl)cc1 [Compound 176]
> 6.70	> 6.70	O=S(=O)(c1cc(Cl)cc(Cl)c1)c1cnc2c(F)cccc2c1-c1ccc(F)cc1 [Compound 50]
< 6.30	> 6.70	N#Cc1cccc(S(=O)(=O)c2cnc3ccccc3c2-c2cccc(F)c2)c1 [Compound 214]
< 6.30	> 6.70	N#Cc1cccc(S(=O)(=O)c2cnc3c(F)cccc3c2-c2ccc(F)cc2)c1 [Compound 222]
< 6.30	< 6.30	N#Cc1ccc2ncc(S(=O)(=O)c3cc(Cl)cc(Cl)c3)c(-c3ccccc3F)c2c1 [Compound 200]
< 6.30	> 6.70	COc1cccc(-c2c(S(=O)(=O)c3cc(Cl)cc(Cl)c3)cnc3c(F)cccc23)c1 [Compound 108]
6.30 to 6.70	> 6.70	N#Cc1cccc(S(=O)(=O)c2cnc3cc(F)ccc3c2-c2cc(F)cc(F)c2)c1 [Compound 245]
> 6.70	> 6.70	O=S(=O)(c1ccc(F)c(Cl)c1)c1cnc2cc(F)ccc2c1-c1ccc(F)cc1 [Compound 105]
< 6.30	> 6.70	O=S(=O)(c1cccc(F)c1)c1cnc2cc(Cl)ccc2c1-c1ccc(F)cc1 [Compound 180]
< 6.30	> 6.70	N#Cc1cc(S(=O)(=O)c2cnc3ccccc3c2-c2ccc(Cl)cc2)ccc1F [Compound 273]
< 6.30	> 6.70	COc1ccc(-c2c(S(=O)(=O)c3cccc(F)c3)cnc3c(F)cccc23)cc1 [Compound 61]
< 6.30	< 6.30	O=S(=O)(c1ccc(Cl)cc1)c1cnc2ccc(F)cc2c1-c1ccc(F)cc1 [Compound 31]
6.30 to 6.70	> 6.70	O=S(=O)(c1ccc(F)c(Cl)c1)c1cnc2c(F)cccc2c1-c1cccc(F)c1 [Compound 210]
< 6.30	> 6.70	O=S(=O)(c1cc(Cl)cc(Cl)c1)c1cnc2ccc(F)cc2c1-c1ccc(Cl)cc1 [Compound 161]
< 6.30	> 6.70	COc1ccc(S(=O)(=O)c2cnc3ccc(F)cc3c2-c2ccc(Cl)cc2)cc1Cl [Compound 78]
< 6.30	> 6.70	COc1ccc(S(=O)(=O)c2cnc3ccc(F)cc3c2-c2ccc(Cl)cc2)cc1 [Compound 29]

— patent US8063220B2, “Sulfonyl-quinoline derivatives” (Richter Gedeon Nyrt., priority 2007, dated 2011)
